Measured values reported in paper PMC5904360, “Soluble N-Ethylmaleimide-Sensitive Factor Attachment Protein Receptor-Derived Peptides for Regulation of Mast Cell Degranulation” (Frontiers in Immunology, 2018).

Assays:
[1] = target: T1, SN23-Syn4-Vp8 SNARE complex (Rattus norvegicus, UniProt O70377+Q08850+Q9WUF4); assay: SNARE-driven membrane fusion (total lipid mixing) assay with proteoliposomes; format: biochemical; details: peptide added after preincubation of T- and V-liposomes at 4°C overnight (partially zippered SNAREs) (Figure 4A)
T1 construct: Syn4 (amino acids 1–298); SNAP-23 (amino acids 1–210); VAMP8 (amino acids 1–100); GST (N, cleaved yes); made in house; host or cells: Escherichia coli Rosetta(DE3)pLysS
T1 sequence (Q08850 1-298): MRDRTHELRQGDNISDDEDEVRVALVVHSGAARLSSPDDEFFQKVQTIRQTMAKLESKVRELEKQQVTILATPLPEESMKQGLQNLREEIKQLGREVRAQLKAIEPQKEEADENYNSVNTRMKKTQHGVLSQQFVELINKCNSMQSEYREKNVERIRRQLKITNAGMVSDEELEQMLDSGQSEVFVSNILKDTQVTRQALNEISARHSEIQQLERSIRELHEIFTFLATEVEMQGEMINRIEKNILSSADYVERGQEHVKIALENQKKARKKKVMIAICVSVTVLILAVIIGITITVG
T1 sequence (O70377 1-210): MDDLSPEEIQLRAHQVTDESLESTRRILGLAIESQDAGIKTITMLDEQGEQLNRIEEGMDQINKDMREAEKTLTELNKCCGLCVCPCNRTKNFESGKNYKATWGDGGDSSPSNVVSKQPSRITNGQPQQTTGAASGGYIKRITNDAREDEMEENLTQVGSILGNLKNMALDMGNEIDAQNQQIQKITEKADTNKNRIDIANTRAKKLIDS
T1 sequence (Q9WUF4 1-100): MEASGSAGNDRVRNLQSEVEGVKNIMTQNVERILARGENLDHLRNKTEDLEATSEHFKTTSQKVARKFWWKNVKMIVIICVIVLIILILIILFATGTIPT

SN23-Syn4-Vp8 complex = target: T2, SN23-Syn4-Vp8 complex (Rattus norvegicus, UniProt O70377+Q08850+Q9WUF4); assay: Co-immunoprecipitation of SNARE complexes in activated RBL-2H3 cells, anti-SNAP-23 blot; format: cell-based; details: peptides added to the medium after A23187 pretreatment; IP of Vp8, blot anti-SNAP-23 (Figure 4C)
T2 construct: Lysates of RBL-2H3 cells; endogenous in cells; host or cells: RBL-2H3 (ATCC CRL-2256)
T2 sequence (Q08850 1-298): T1 sequence (Q08850 1-298)
T2 sequence (O70377 1-210): T1 sequence (O70377 1-210)
T2 sequence (Q9WUF4 1-100): T1 sequence (Q9WUF4 1-100)
Protocol: Lysates of RBL-2H3 cells (0.5–1 × 10^6 cells), which were obtained by the addition of 1 mL lysis buffer (50 mM Tris–HCl, 150 mM NaCl, 1% Triton X-100™, 1 mM EDTA, pH 7.5) supplemented with a protease inhibitor cocktail (Calbiochem®, Merck Millipore, Billerica, MA, USA), were centrifuged at 13,000 g at 4°C to remove cell debris and precleared with 100 µL protein G Sepharose® (GE Healthcare) for 2 h at 4°C. The precleared lysates were incubated with antibodies against SNARE proteins (Syn4, SNAP-23, VAMP2, and VAMP8) for 2 h at 4°C for binding, and then the antibody–antigen complexes were precipitated by incubation with a protein G slurry overnight with constant shaking. After an extensive washing step with lysis buffer, an immunoblotting analysis was performed for the precipitates. The immunoprecipitated proteins and cell lysates were electrophoresed on 12% sodium dodecyl sulfate-polyacrylamide gel electrophoresis gels and then transferred to nitrocellulose blotting membranes (GE Healthcare). After blocking the membranes in TBST (10 mM Tris–HCl, 150 mM NaCl, and 0.05% Tween® 20, pH 8) containing 0.5% BSA and 5% skim milk for 1 h at room temperature, primary anti-SNAP-23 antibody (1:1,000 dilution) in TBST supplemented with 1% BSA and 0.01% sodium azide was added and incubated at 4°C overnight. The membranes were washed with TBST, treated with a horseradish peroxidase-conjugated secondary anti-mouse IgG antibody (A4416, Sigma-Aldrich), and visualized using enhanced chemiluminescence solution for the development of a luminescent signal.

RBL-2H3 mast cells = assay: Degranulation assay, β-hexosaminidase release; format: cell-based, rat; details: for inhibition of mast cell degranulation with versus without A23187 pretreatment: PTD-conjugated peptides, read-outs β-hexosaminidase and histamine (Figure 4B); for reduction of β-hexosaminidase release: 10 µM PTD-fused peptide without SLO (LY294002 as positive control), DNP-BSA stimulation, no A23187 pretreatment, three independent experiments (Figure 2A gray bars, 2C); for inhibition of β-hexosaminidase release after A23187 pretreatment: cells pretreated with A23187, sensitized with DNP-IgE, then PTD-conjugated peptide (Figure 4B)

Row | Sequence | inhibition of membrane fusion, peptide added after preincubation [1] | SNARE complex formation in cells (amount of SN23-Syn4-Vp8 complex) (SN23-Syn4-Vp8 complex) | inhibition of mast cell degranulation with versus without A23187 pretreatment (RBL-2H3 mast cells) | reduction of β-hexosaminidase release (RBL-2H3 mast cells) | inhibition of β-hexosaminidase release after A23187 pretreatment (RBL-2H3 mast cells)
1 | EDEMEENLTQVGSILGN [SC23N, 17-mer peptide, N-terminal region of SNAP-23 SNARE motif SC23] | inhibitory activities significantly diminished | reduced | inhibited mast cell degranulation more efficiently than without pretreatment | – | –
2 | LQSEVEGVKNIMTQNVE [Vp8N, 17-mer peptide, N-terminal region of VAMP8 SNARE motif] | inhibitory activities significantly diminished | reduced | inhibited mast cell degranulation more efficiently than without pretreatment | 30–40% | inhibited both histamine and β-hexosaminidase release
3 | SARHSEIQQLERTIREL [Syn4N, 17-mer peptide, N-terminal region of syntaxin 4 SNARE motif] | inhibitory activities significantly diminished | reduced | inhibited mast cell degranulation more efficiently than without pretreatment | 30–40% | inhibited both histamine and β-hexosaminidase release
